Laboratory results from US12357605B2, “Muscle building agent” (KANEKA CORPORATION, priority 2019, dated 2025).

Test system: muscle satellite cells
Test: Evaluation of muscle satellite cell activating effect (ratio of BrdU positive cells)
Assay type: cell-based, SD rat
Conditions: for Ratio of activated muscle satellite cells, Mean: 24 hours culture, BrdU positive cells / total cells, solvent control 41.3%; for muscle satellite cell activating effect: in comparison with the solvent control, result in words
Experimental: The muscle satellite cells activation effect can be evaluated by, for example, the following in vitro test. Specifically, muscle satellite cells are isolated from an animal and cultured in a culture medium containing test sample for 24 hours. Then, bromodeoxyuridine (BrdU) is added thereto at the final concentration of 10 μM, and the mixture is incubated for 2 hours. Next, the muscle satellite cells are fixed at 4° C. for 10 minutes with ice-cooled methanol containing 0.1% H2O2 and are subjected to DNA denaturation treatment at 37° C. for 1 hour using 2 N hydrochloric acid, and BrdU positive cells are detected by using anti-BrdU antibody as a primary antibody, HRP-conjugated anti-mouse IgG antibody as a secondary antibody, and coloring with diaminobenzidine (DAB). The ratio of BrdU positive cells to the total number of cells is calculated as the ratio of activated muscle satellite cells. It is judged with respect to the ratio of activated muscle satellite cells of the muscle building agent according to the present invention that muscle satellite cells are activated in the case where a ratio of activated muscle satellite cells is increased by a treatment with a test substrate in comparison with a solvent control. An increase to a solvent control is preferably 2% or more, more preferably 3% or more and even more preferably 5% or more.
Muscle tissues were isolated from the upper hindlimb and back of 6-month old male SD rat (from Japan SLC). The muscle tissues were trimmed of adipose and connective tissue, minced, and treated with PBS containing 1.25 mg/mL protease (Sigma) at 37° C. for 1 hour. After muscle fiber fragments and tissue debris were removed by centrifugation, the cells were seeded on plates coated with polylysine (Sigma) and fibronectin (Sigma). After the cells were cultured in 5% CO2 atmosphere at 37° C. for 24 hours, muscle satellite cells were isolated by washing with PBS. DMEM (“Dulbecco's Modified Eagle Medium”, Thermo Fisher Scientific) containing 10% horse serum (Thermo Fisher Scientific) was used as a culture media. The culture media is hereinafter abbreviated as “10% HS-DMEM”.
The casuarinin prepared in Example 1 or the stachyurin prepared in Example 2 was dissolved in water and added in 10% HS-DMEM to prepare the 10% HS-DMEM containing casuarinin or stachyurin. The culture medium of the isolated muscle satellite cells were exchanged for the 10% HS-DMEM containing casuarinin or stachyurin, and the muscle satellite cells were cultured for 24 hours. Casuarinin concentrations were adjusted to 0.01 to 1.1 μM (13 to 1000 ng/mL), and stachyurin concentrations were adjusted to 0.09 to 0.4 μM (83 to 333 ng/mL). As a solvent control, 10% HS-DMEM was used.
Bromodeoxyuridine (BrdU, Sigma) was added to the culture medium at the final concentration of 10 μM, and the mixture was incubated for 2 hours. Then, the muscle satellite cells were fixed at 4° C. for 10 minutes with ice-cooled methanol containing 0.1% H2O2 and were further subjected to DNA denaturation treatment using 2 N hydrochloric acid at 37° C. for 1 hour, and BrdU positive cells were detected by using anti-BrdU antibody (Sigma) as a primary antibody, HRP-conjugated anti-mouse IgG antibody (Sigma) as a secondary antibody, and coloring with diaminobenzidine (DAB, Sigma). The ratio of BrdU positive cells to the total number of cells was calculated as the ratio of activated muscle satellite cells. The experiments were performed in 12 independent cell cultures in the case of the solvent control, and in 3 independent cultures in each concentration in the case of casuarinin or stachyurin. Data were expressed as the mean and standard deviation. The “*” in FIGS. 1 and 2 represents that the difference to the solvent control was statistically significant at p<0.05 by Dunnett's test. […]

Row | SMILES | Ratio of activated muscle satellite cells, Mean (100 ng/mL) | other results
1 | O=C1OC[C@H]2OC(=O)c3cc(O)c(O)c(O)c3-c3c(O)c(O)c(O)c4c3C(=O)O[C@H]([C@H]3OC(=O)c5c-4c(O)c(O)c(O)c5[C@H]3O)[C@@H]2OC(=O)c2cc(O)c(O)c(O)c2-c2c1cc(O)c(O)c2O [Castalagin, castalagin, reference compound] | 39.4% | 
2 | C[C@@H]1OC(Oc2c(-c3cc(O)c(O)c(O)c3)oc3cc(O)cc(O)c3c2=O)[C@H](O)[C@H](O)[C@H]1O (stereo partly drawn) [Myricitrin, myricitrin, reference compound] | 41.8% | 
3 | O=c1c(O[C@@H]2O[C@H](CO)[C@H](O)[C@H](O)[C@H]2O)c(-c2ccc(O)c(O)c2)oc2cc(O)cc(O)c12 [Hyperin, hyperin, reference compound] | 38.2% | 
4 | O=C(O[C@@H]1COC(=O)c2cc(O)c(O)c(O)c2-c2c(cc(O)c(O)c2O)C(=O)O[C@H]1[C@@H]1OC(=O)c2cc(O)c(O)c(O)c2-c2c(O)c(O)c(O)c3c2C(=O)O[C@H]1[C@H]3O)c1cc(O)c(O)c(O)c1 [Stachyurin, stachyurin] |  | Ratio of activated muscle satellite cells, Mean (0.09 μM (83 ng/mL)): 44.7%; Ratio of activated muscle satellite cells, Mean (0.4 μM (333 ng/mL)): 48.5%; muscle satellite cell activating effect: significant muscle satellite cell activating effect
5 | O=C(O)c1cc(O)c(O)c(O)c1 [Gallic acid, gallic acid, reference compound] | 37.8% | 
6 | O=C(O[C@@H]1OC2COC(=O)c3cc(O)c(O)c(O)c3-c3c(cc(O)c(O)c3O)C(=O)O[C@H]2[C@@H]2OC(=O)c3cc(O)c(O)c(O)c3-c3c(cc(O)c(O)c3O)C(=O)OC12)c1cc(O)c(O)c(O)c1 (stereo partly drawn) [Casuarictin, casuarictin, reference compound] | 39.2% | 
7 | C[C@@H]1O[C@@H](Oc2c(-c3ccc(O)c(O)c3)oc3cc(O)cc(O)c3c2=O)[C@H](O)[C@H](O)[C@H]1O [Quercitrin, quercitrin, reference compound] | 40.0% | 
8 | O=c1oc2c(O)c(O)cc3c(=O)oc4c(O)c(O)cc1c4c23 [Ellagic acid, ellagic acid, reference compound] | 38.3% | 
9 | Oc1cc(O)c2c(c1)O[C@@H](c1ccc(O)c(O)c1)[C@H](O)C2 [Catechin, catechin, reference compound] | 42.1% | 
10 | O=C(O[C@@H]1COC(=O)c2cc(O)c(O)c(O)c2-c2c(cc(O)c(O)c2O)C(=O)O[C@H]1[C@@H]1OC(=O)c2cc(O)c(O)c(O)c2-c2c(O)c(O)c(O)c3c2C(=O)O[C@H]1C3O)c1cc(O)c(O)c(O)c1 (stereo partly drawn) [Casuarinin, casuarinin] | 50.8% | Ratio of activated muscle satellite cells, Mean (0.01 μM (13 ng/mL)): 43.3%; Ratio of activated muscle satellite cells, Mean (0.03 μM (25 ng/mL)): 44.9%; Ratio of activated muscle satellite cells, Mean (0.05 μM (50 ng/mL)): 51.3%; Ratio of activated muscle satellite cells, Mean (0.3 μM (250 ng/mL)): 48.8%; Ratio of activated muscle satellite cells, Mean (1.1 μM (1000 ng/mL)): 43.7%; muscle satellite cell activating effect: significant muscle satellite cell activating effect
